Values after ≈ are worked out from the molar mass of the structure shown. Like-named read-outs stand apart in the source and are kept apart here.
Legend:
Ent. cloacae MA2646 = test: in vitro antibacterial activity, microtitration dilution (MIC), Ent. cloacae MA2646; format: cell-based; details: Enterobacter cloacae, read-out: minimum inhibiting concentration (MIC)
How it was run: (§1)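 Readout: lowest compound concentration inhibiting growth (MIC, μg/mL), measured by serial dilution in microtitration format.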

Esch. coli Vogel [1] = test: in vitro antibacterial activity, microtitration dilution (MIC), Esch. coli Vogel; format: cell-based; details: Escherichia coli, read-out: minimum inhibiting concentration (MIC)
How it was run: as §1

Klebs. pneumoniae MGH-2 = test: in vitro antibacterial activity, microtitration dilution (MIC), Klebs. pneumoniae MGH-2; format: cell-based; details: Klebsiella pneumoniae, MGH2, read-out: minimum inhibiting concentration (MIC)
How it was run: as §1

Prot. rettgeri M 1771 = test: in vitro antibacterial activity, microtitration dilution (MIC), Prot. rettgeri M 1771; format: cell-based; details: Providencia rettgeri, M1771, read-out: minimum inhibiting concentration (MIC)
How it was run: as §1

Pseud. aeruginosa UI-18 [2] = test: in vitro antibacterial activity, microtitration dilution (MIC), Pseud. aeruginosa UI-18; format: cell-based; details: Pseudomonas aeruginosa, UI18, read-out: minimum inhibiting concentration (MIC)
How it was run: as §1

Staph. aureus H 228 = test: in vitro antibacterial activity, microtitration dilution (MIC), Staph. aureus H 228; format: cell-based; details: Staphylococcus aureus, H228, read-out: minimum inhibiting concentration (MIC)
How it was run: as §1

Staph. aureus UC-76 = test: in vitro antibacterial activity, microtitration dilution (MIC), Staph. aureus UC-76; format: cell-based; details: Staphylococcus aureus, UC76, read-out: minimum inhibiting concentration (MIC)
How it was run: as §1

Strep. faecalis MGH-2 = test: in vitro antibacterial activity, microtitration dilution (MIC), Strep. faecalis MGH-2; format: cell-based; details: Enterococcus faecalis, MGH2, read-out: minimum inhibiting concentration (MIC)
How it was run: as §1

Strep. pheumoniae SV-1 [3] = test: in vitro antibacterial activity, microtitration dilution (MIC), Strep. pneumoniae SV-1; format: cell-based; details: Streptococcus pneumoniae, SV1, read-out: minimum inhibiting concentration (MIC)
How it was run: as §1

Strep. pyogenes C-203 [4] = test: in vitro antibacterial activity, microtitration dilution (MIC), Strep. pyogenes C-203; format: cell-based; details: Streptococcus pyogenes, C203, read-out: minimum inhibiting concentration (MIC)
How it was run: as §1

Esch. coli Vogel [5] = test: median protective dose in mice given lethal systemic infections, Esch. coli Vogel; format: in vivo; details: Escherichia coli, single dose at time of challenge, read-out: median protective dose (PD50)
Procedure: (§2) The in vivo activity is obtained when the compounds are tested according to the procedure of Miller, et al (Proc. Soc. Exp. Biol. Med. 57, 261, 1944). The median protective dose (PD50) was determined in mice given lethal systemic infections. Single doses of compound were given at time of challenge.
(§3) By use of the above methods, the following minimum inhibiting concentration values (MICs in μg/mL), PD50 's in mg/kg, no effect phototoxicity dose in mg/kg and the cytotoxicity IC50 in μg/mL were obtained for representative enantiomers of the invention and compounds of the prior art as shown in the table.
(§4) The in vivo data as PD50 s are reported below the line of MICs for the same compound.

Pseud. aeruginosa UI-18 [6] = test: median protective dose in mice given lethal systemic infections, Pseud. aeruginosa UI-18; format: in vivo; details: Pseudomonas aeruginosa, single dose at time of challenge, read-out: median protective dose (PD50)
Procedure: as §2, §3, §4

Strep. pheumoniae SV-1 [7] = test: median protective dose in mice given lethal systemic infections, Strep. pneumoniae SV-1; format: in vivo; details: Streptococcus pneumoniae, single dose at time of challenge, read-out: median protective dose (PD50)
Procedure: as §2, §3, §4

Strep. pyogenes C-203 [8] = test: median protective dose in mice given lethal systemic infections, Strep. pyogenes C-203; format: in vivo; details: Streptococcus pyogenes, single dose at time of challenge, read-out: median protective dose (PD50)
How it was run: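 Mice given lethal systemic infections received single compound doses at time of challenge; PD50 (mg/kg) is the median protective dose.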

in vivo = test: in vivo; parameters: species or system mice; details: mouse, po
Procedure: The phototoxicity data is obtained using depilated mice. The compound was administered orally each day for four successive days, followed each day by 3 hours of UVA radiation. The mice were examined for any positive signs (redness, erythema) relative to control animals. The no effect dose and the 50% effect dose were determined. By use of the above methods, the following minimum inhibiting concentration values (MICs in μg/mL), PD50 's in mg/kg, no effect phototoxicity dose in mg/kg and the cytotoxicity IC50 in μg/mL were obtained for representative enantiomers of the invention and compounds of the prior art as shown in the table.

[9] = cytotoxicity, hamster V-79 cells, colony reduction; format: cell-based; details: 3 hours treatment, colonies counted after 5 days, read-out: Cytotox (cytotoxicity IC50)
Procedure: The cytotoxicity data is obtained using hamster V-79 cells. The cells were suspended in tissue culture medium and grown overnight. Cells were treated with drug for 3 hours, washed free of drug and then replated, and the colonies counted after 5 days. The concentration of drug that reduced colones by 50% relative to control was recorded.
as §3

| Compound | MIC (Ent. cloacae MA2646) | MIC (Esch. coli Vogel [1]) | MIC (Klebs. pneumoniae MGH-2) | MIC (Prot. rettgeri M 1771) | MIC (Pseud. aeruginosa UI-18 [2]) | MIC (Staph. aureus H 228) | MIC (Staph. aureus UC-76) | MIC (Strep. faecalis MGH-2) | MIC (Strep. pheumoniae SV-1 [3]) | MIC (Strep. pyogenes C-203 [4]) | ED50 (Esch. coli Vogel [5]; PO) | ED50 (Esch. coli Vogel [5]; SC) | ED50 (Pseud. aeruginosa UI-18 [6]; UI18, PO) | ED50 (Pseud. aeruginosa UI-18 [6]; UI18, SC) | ED50 (Strep. pheumoniae SV-1 [7]; SV1, PO) | ED50 (Strep. pheumoniae SV-1 [7]; SV1, SC) | ED50 (Strep. pyogenes C-203 [8]; C203, PO) | ED50 (Strep. pyogenes C-203 [8]; C203, SC) | NOAEL at 96 h (in vivo) | CC50 at 3 h [9] |
| --- | --- | --- | --- | --- | --- | --- | --- | --- | --- | --- | --- | --- | --- | --- | --- | --- | --- | --- | --- | --- |
| C[C@H]([C@@H]1CCN(c2nc3c(cc2F)c(=O)c(C(=O)O)cn3C2CC2)C1)N(C)C [Example 72, 3R,1R-1-cyclopropyl-7-[3-[1-(dimethylamino)ethyl]-1-pyrrolidinyl]-6-fluoro-1,4,-dihydro-4-oxo-1,8-naphthyridine-3-carboxylic acid] | 0.2 µg/mL (≈ 0.515 µM) | 0.1 µg/mL (≈ 0.257 µM) | 0.2 µg/mL (≈ 0.515 µM) | 0.8 µg/mL (≈ 2.06 µM) | 1.6 µg/mL (≈ 4.12 µM) | 0.025 µg/mL (≈ 0.0644 µM) | 0.025 µg/mL (≈ 0.0644 µM) | 0.1 µg/mL (≈ 0.257 µM) | 0.025 µg/mL (≈ 0.0644 µM) | 0.05 µg/mL (≈ 0.129 µM) | 1 mg/kg | 1 mg/kg | 17 mg/kg | 11 mg/kg | 2 mg/kg | 2 mg/kg | 2 mg/kg | 2 mg/kg | < 30 mg/kg | 120 µg/mL (≈ 309 µM) |
| C[C@@H](N)[C@@H]1CCN(c2nc3c(cc2F)c(=O)c(C(=O)O)cn3C2CC2)C1 [Example 8] | 0.05 µg/mL (≈ 0.139 µM) | 0.05 µg/mL (≈ 0.139 µM) | 0.1 µg/mL (≈ 0.277 µM) | 0.4 µg/mL (≈ 1.11 µM) | 0.8 µg/mL (≈ 2.22 µM) | 0.05 µg/mL (≈ 0.139 µM) | 0.06 µg/mL (≈ 0.166 µM) | 0.05 µg/mL (≈ 0.139 µM) | 0.006 µg/mL (≈ 0.0166 µM) | 0.013 µg/mL (≈ 0.0361 µM) | 6 mg/kg | 1 mg/kg | 35 mg/kg | 12 mg/kg | 14 mg/kg | 2 mg/kg |  |  | 55 mg/kg | 100 µg/mL (≈ 277 µM) |
| C[C@H](N)[C@@H]1CCN(c2nc3c(cc2F)c(=O)c(C(=O)O)cn3C2CC2)C1 [Example 7, 3R,1S-1-cyclopropyl-6-fluoro-7-[3-(1-aminoethyl)-1-pyrrolidinyl]-1,4-dihydro-4-oxo-1,8-naphthyridine-3-carboxylic acid] | 0.025 µg/mL (≈ 0.0694 µM) | 0.025 µg/mL (≈ 0.0694 µM) | 0.05 µg/mL (≈ 0.139 µM) | 0.1 µg/mL (≈ 0.277 µM) | 0.4 µg/mL (≈ 1.11 µM) | 0.025 µg/mL (≈ 0.0694 µM) |  | 0.025 µg/mL (≈ 0.0694 µM) | 0.006 µg/mL (≈ 0.0166 µM) | 0.013 µg/mL (≈ 0.0361 µM) | 2 mg/kg | 0.4 mg/kg | 15 mg/kg | 4 mg/kg | 3 mg/kg | 1 mg/kg | 3 mg/kg | 1 mg/kg | 30 mg/kg | 33 µg/mL (≈ 91.6 µM) |
| C[C@@H](N)[C@H]1CCN(c2nc3c(cc2F)c(=O)c(C(=O)O)cn3C2CC2)C1 [Example 5, 3S,1R-1-cyclopropyl-6-fluoro-7-[3-(1-aminoethyl)-1-pyrrolidinyl]-1,4-dihydro-4-oxo-1,8-naphthyridine-3-carboxylic acid] | 0.05 µg/mL (≈ 0.139 µM) | 0.05 µg/mL (≈ 0.139 µM) | 0.1 µg/mL (≈ 0.277 µM) | 0.2 µg/mL (≈ 0.555 µM) | 0.8 µg/mL (≈ 2.22 µM) | 0.2 µg/mL (≈ 0.555 µM) | 0.025 µg/mL (≈ 0.0694 µM) | 0.1 µg/mL (≈ 0.277 µM) | 0.05 µg/mL (≈ 0.139 µM) | 0.05 µg/mL (≈ 0.139 µM) | 4 mg/kg | 1 mg/kg | 23 mg/kg | 16 mg/kg | 15 mg/kg | 7 mg/kg |  |  | > 100 mg/kg | 84 µg/mL (≈ 233 µM) |

— patent US5563155A, “Individual stereosiomers of 7-[3-(aminoalkyl)-1-pyrrolidinyl]-quinolones and naphthyridones as antibacterial agents” (Warner-Lambert Company, priority 1995, dated 1996)
